Reference: patent EP0431799A2, “Use of nucleoside derivatives as cytotoxic agents” (THE WELLCOME FOUNDATION LIMITED, priority 1989, dated 1991)

System: P388 tumor cells
Set-up: species or system Male CD2-F₁ mice
Conditions: mouse, in vivo, po
Description: The tests employed for evaluating the antitumour activity of compounds of the present invention are essentially those used in the Tumor Panel of the Developmental Therapeutics Program, Divison of Cancer Treatment National Cancer Institute, A Goldin, et al., Methods in Cancer Research, Vol. XVI, p. 165, Academic Press (1979). Some modifications in dose level and schedule have been made to increase the testing efficiency.
Male CD2-F₁ mice, weighing 20 ± 3 g, were used for this test. Control and test animals were injected intraperitioneally with a suspension of ∼10⁶ viable P388 tumor cells on day 0. In each test, several dose levels which bracketed the LD₂₀ of the compound were evaluated; each dose level group contained six animals. The test compounds were prepared either in physiologic saline containing 0.05% Tween 80 or distilled water containing 5% dextrose and were administered (a) orally, (b) intravenously or (c) intraperitoneally according to the indicated schedule relative to the day of tumour implant. Doses were on a mg/kg basis according to individual animals' body weights. The day of death for each animal was recorded, the median identified for each group and the percent increase in life span (%ILS) was calculated from the ratios of median survival time for treated to control groups. The criterion for activity is % ILS greater than or equal to 20%.

Structure (SMILES): Nc1ncnc2c1ncn2[C@@H]1CC[C@@H](O)[C@H]1O (racemic) [(±)-(1R*,2S*,3R*)-3-(6-amino-9H-purin-9-yl)-1,2-cyclopentanediol]
- Toxic at:: 35 mg/kg
